Source: patent US20160136138A1, “DRUG FOR TREATMENT OF NONALCOHOLIC FATTY LIVER DISEASE” (KOWA COMPANY, LTD., priority 2013, published 2016)

Columns and labels:
[1] = system: LDL receptor knockout mice NASH model; assay: Western diet-fed LDL receptor knockout mice NASH model; assay type: in vivo; conditions: 12 weeks, vs control
Description: Effects on Western diet-fed LDL receptor knockout mice (Non Patent Document 4), which are known to develop fatty liver and hepatic inflammation, characteristic symptoms of NASH were examined. […] Male LDL receptor knockout mice ([…], Jackson Laboratories) were used in the experiment. Beginning at around 8 weeks of age, the mice were freely fed with Teklad Custom Research Diet (TD.88137, Harlan Teklad) as a Western diet for 13 weeks to develop NASH. • 2) Grouping: After 1 week of the Western diet feeding, the mice were subjected to blood sampling and weighing. The mice were divided into a control group (0.5% methyl cellulose aqueous solution), a Compound A 0.5 mg/kg administration group, and a fenofibrate 100 mg/kg administration group in such a way that there was no difference in plasma lipid level and weight between the groups. […] The administration period was 12 weeks. After the administration was completed, the livers were removed from the mice under pentobarbital sodium (50 mg/kg) anesthesia. The livers were fixed with paraformaldehyde and then subjected to the preparation of hematoxylin-eosin stained samples and immunostained samples for CD68 detection. In a blind study setting, using the hematoxylin-eosin stained samples, ballooning of hepatocytes was scored based on the following criteria (Kleiner et al. Hepatology 41, 1313-21, 2005). No balloon cells: 0 Few balloon cells: 1 Many balloon cells or ballooning: 2 The CD68 positive area in liver was measured with an image analysis system (WinROOF) in a blind study. The statistical analysis was performed using Stat […] Information Technology Inc.) (Ver. 1.1). Dunnett's test (N=14-15) was used for comparison with the control group, in which a significant difference with p<0.05 is indicated by the symbol *, and a significant difference with p<0.001 is indicated by the symbol ***.

[2] = system: KK-A^y mice fed with an MCD diet; assay: NASH model using KK-A^y mice fed with methionine-choline-deficient diet; assay type: in vivo; conditions: Compound A 0.25 mg/kg mixed in MCD diet (0.00026%), 16 weeks; scale 0 to 3
Method: Effects on experimental animals, KK-A^y mice fed with a methionine-choline-deficient diet (MCD diet), which are known to develop fatty liver, a characteristic symptom of NASH (Nakano S. et al., Hepatol Res., 38(10), 1026-39, 2008) were examined.
As in Example 1, this experiment was conducted using (R)-2-[3-[[N-(benzoxazol-2-yl)-N-3-(4-methoxyphenoxy)propyl ]aminomethyl]phenoxy]butyric acid (Compound A), which is disclosed as Example 85 in Patent Document 1 listed above.
Male KK-A^y mice (KK-A^y/TaJc1, CLEA Japan, Inc.) were used in the experiment. Beginning at around 12 weeks of age, the mice were freely fed with an MCD diet for 16 weeks to develop NASH. • 2) Grouping:
The mice were divided into a normal diet group, a control group (fed with an MCD diet), a Compound A 0.25 mg/kg administration group, and a bezafibrate 60 mg/kg administration group in such a way that there was no difference in weight between the groups. • 3) Drug administration:
The doses were mixed in the feed. The control group was fed with an MCD diet containing no drug. […]
After the administration was completed, the livers were removed from the mice under pentobarbital sodium (50 mg/kg) anesthesia. […] Depending on the grade, the fatty liver was scored on a scale of 0 to 3 based on the following criteria. […]

Structure (SMILES)	CD68 positive area in liver, reduction rate ([1]; Compound A 0.5 mg/kg orally once a day)	ballooning of hepatocytes (score) ([1]; Compound A 0.5 mg/kg orally once a day, Dunnett's test)	steatosis score [2]	CD68 positive area in liver, reduction rate ([1]; fenofibrate 100 mg/kg orally once a day)
CC[C@@H](Oc1cccc(CN(CCCOc2ccc(OC)cc2)c2nc3ccccc3o2)c1)C(=O)O [Compound A, (R)-2-[3-[[N-(benzoxazol-2-yl)-N-3-(4-methoxyphenoxy)propyl]aminomethyl]phenoxy]butyric acid]	81%	significant suppression of ballooning of hepatocytes	0	
CC(C)OC(=O)C(C)(C)Oc1ccc(C(=O)c2ccc(Cl)cc2)cc1 [fenofibrate, reference compound]				73%
